Experimental data: patent US6423689B1, “Peptidyl calcium channel blockers” (Warner-Lambert Company, priority 1997, dated 2002)

biological target: T1, N-type Ca2+ channels in IMR-32 cells (Homo sapiens, UniProt Q00975); experiment: Inhibition of N-type calcium flux in IMR-32 cells (Indo-1 fluorescence, nitrendipine present); assay type: cell-based; details: 1 μM
T1 construct: host or cells: IMR-32 cells, differentiated with dibutyryl cAMP and bromodeoxyuridine
Method: Measurement of N-type Ca^2+ Channel Blocking Potencies of Compounds in IMR-32 Cells Using the Fluorescent Ca^2+ Indicator Indo-1
IMR-32 cells are a human tumoral cell line of neural origin. […] Calcium flux into these cells may be induced by stimulation with elevated potassium concentrations. The L-channel component of calcium flux may be blocked by adding 5 μM nitrendipine. The remaining component of calcium entry into the IMR-32 cells is due to calcium flux through N-type calcium channels. Intracellular calcium concentrations are measured using the fluorescent calcium indicator Indo 1. The effect of drug concentration on calcium uptake is studied.
The IMR-32 cell line was obtained from the American Type Culture Collection (Rockville, Md.). Cells were grown in Eagle's Minimum Essential Medium with Eagle's salts supplemented with 10% fetal bovine serum, 2 mM L-Gln and antibiotic/antimycotic mixture (Gibco). […] After 7 to 13 days of differentiation, cells were detached using 0.5 mM EDTA and loaded with 5 μM Indo-1 acetoxymethyl ester (Molecular Probes, Eugene, OR) at […] for 45 minutes. Loaded cells were washed twice, resuspended (˜10^7 cells/mL) in assay buffer (10 mM HEPES/Tris pH 7.4 in Hank's Balanced Salt Solution without bicarbonate or phenol red containing 0.5% bovine serum albumin) and kept on ice until use. Fluorescence measurements were carried out in a Photon Technology International (PTI, South Brunswick, N.J.) Model RF-F3004 spectrofluorometer with dual emission monochromators using excitation at 350 nm and emission at 400 and 490 nm. The instrument was equipped with a thermostated cuvette holder with stirring capabilities as well as with a computer-controlled pump which allowed for reagent addition during measurement. Instrument control and data collection was done by PTI's OSCAR software running on an IBM compatible computer. […] Samples were incubated for 10 minutes at 30° C. and then aliquoted into three 10×10 mm disposable acrylic cuvettes. Emission signals at 400 and 490 nm were acquired from each cuvette at 30° C. for 50 seconds. At 20 seconds after the start of reading, cells were depolarized by the addition of 160 μL of stimulation solution (1M KCl, 68 mM CaCl2) to the cuvette via the computer-controlled pump. Ratio of dual emission signals (400 nm/490 nm), which is proportional to intracellular Ca^2+ concentration, was plotted against time, and the difference between maximal response after stimulation and basal value (before stimulation) was determined. Values obtained in this way were plotted as a function of drug concentration. IC50 values of test compounds were calculated by fitting a four-parameter logistic function to the data using the least squares method.

T1 sequence (Q00975 whole entry): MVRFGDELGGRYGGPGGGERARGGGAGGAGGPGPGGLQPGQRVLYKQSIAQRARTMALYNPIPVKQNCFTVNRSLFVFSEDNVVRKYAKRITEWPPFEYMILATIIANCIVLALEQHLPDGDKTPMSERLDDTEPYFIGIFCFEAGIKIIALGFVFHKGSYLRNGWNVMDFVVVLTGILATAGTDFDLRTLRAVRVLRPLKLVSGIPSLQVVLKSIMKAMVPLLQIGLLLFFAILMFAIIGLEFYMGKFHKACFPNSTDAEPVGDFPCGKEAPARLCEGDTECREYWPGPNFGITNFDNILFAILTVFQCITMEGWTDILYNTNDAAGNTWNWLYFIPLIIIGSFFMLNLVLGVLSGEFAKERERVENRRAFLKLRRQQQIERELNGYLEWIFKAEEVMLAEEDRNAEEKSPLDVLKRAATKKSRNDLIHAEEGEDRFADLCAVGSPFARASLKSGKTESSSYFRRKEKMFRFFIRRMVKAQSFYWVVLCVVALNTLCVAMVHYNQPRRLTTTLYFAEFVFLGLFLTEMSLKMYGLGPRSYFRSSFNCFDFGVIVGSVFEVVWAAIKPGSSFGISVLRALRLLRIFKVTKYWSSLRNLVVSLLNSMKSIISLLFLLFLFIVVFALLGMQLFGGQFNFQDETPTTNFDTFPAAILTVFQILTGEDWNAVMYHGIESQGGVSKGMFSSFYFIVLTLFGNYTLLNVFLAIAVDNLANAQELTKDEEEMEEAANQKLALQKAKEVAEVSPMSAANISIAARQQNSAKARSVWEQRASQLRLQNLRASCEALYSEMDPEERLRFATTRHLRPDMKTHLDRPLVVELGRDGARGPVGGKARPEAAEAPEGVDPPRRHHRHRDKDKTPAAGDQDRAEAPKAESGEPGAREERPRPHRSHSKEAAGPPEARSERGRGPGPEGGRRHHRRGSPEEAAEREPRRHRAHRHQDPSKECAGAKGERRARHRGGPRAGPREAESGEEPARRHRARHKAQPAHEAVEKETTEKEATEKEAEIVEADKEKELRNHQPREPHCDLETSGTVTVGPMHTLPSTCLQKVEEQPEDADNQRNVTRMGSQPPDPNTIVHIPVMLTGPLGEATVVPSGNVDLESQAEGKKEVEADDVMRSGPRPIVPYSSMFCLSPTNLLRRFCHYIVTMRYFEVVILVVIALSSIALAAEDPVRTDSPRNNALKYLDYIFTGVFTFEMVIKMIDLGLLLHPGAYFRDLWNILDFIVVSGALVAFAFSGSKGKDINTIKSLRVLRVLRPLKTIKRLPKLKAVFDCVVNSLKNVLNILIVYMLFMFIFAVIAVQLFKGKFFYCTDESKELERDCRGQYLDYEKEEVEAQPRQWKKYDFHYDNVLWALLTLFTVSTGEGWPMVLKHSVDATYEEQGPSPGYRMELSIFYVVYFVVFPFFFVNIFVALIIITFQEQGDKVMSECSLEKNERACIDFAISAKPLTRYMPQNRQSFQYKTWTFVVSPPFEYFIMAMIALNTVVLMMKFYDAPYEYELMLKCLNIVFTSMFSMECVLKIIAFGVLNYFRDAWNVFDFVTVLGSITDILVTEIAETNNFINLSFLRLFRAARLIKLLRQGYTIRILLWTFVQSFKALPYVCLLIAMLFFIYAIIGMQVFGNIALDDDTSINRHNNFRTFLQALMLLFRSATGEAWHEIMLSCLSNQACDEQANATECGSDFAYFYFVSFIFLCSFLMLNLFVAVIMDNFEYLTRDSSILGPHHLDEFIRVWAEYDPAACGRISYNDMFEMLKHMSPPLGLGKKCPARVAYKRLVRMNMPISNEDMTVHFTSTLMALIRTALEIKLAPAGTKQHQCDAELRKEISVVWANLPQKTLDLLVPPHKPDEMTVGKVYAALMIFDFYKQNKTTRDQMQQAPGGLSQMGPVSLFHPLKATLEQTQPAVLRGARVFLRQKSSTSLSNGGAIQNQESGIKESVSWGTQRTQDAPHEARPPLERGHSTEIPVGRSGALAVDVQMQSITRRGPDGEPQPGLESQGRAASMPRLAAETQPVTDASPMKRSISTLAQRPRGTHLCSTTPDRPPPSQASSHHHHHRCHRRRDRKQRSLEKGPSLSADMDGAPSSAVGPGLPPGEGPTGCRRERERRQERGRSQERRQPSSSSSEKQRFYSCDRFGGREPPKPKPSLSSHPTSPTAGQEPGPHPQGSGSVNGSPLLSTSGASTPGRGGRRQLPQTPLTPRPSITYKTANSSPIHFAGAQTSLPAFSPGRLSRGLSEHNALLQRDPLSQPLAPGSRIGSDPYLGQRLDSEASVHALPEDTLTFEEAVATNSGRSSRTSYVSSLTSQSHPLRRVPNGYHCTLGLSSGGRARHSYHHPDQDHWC
T1 sequence (P54289 25-956 partner limits assumed): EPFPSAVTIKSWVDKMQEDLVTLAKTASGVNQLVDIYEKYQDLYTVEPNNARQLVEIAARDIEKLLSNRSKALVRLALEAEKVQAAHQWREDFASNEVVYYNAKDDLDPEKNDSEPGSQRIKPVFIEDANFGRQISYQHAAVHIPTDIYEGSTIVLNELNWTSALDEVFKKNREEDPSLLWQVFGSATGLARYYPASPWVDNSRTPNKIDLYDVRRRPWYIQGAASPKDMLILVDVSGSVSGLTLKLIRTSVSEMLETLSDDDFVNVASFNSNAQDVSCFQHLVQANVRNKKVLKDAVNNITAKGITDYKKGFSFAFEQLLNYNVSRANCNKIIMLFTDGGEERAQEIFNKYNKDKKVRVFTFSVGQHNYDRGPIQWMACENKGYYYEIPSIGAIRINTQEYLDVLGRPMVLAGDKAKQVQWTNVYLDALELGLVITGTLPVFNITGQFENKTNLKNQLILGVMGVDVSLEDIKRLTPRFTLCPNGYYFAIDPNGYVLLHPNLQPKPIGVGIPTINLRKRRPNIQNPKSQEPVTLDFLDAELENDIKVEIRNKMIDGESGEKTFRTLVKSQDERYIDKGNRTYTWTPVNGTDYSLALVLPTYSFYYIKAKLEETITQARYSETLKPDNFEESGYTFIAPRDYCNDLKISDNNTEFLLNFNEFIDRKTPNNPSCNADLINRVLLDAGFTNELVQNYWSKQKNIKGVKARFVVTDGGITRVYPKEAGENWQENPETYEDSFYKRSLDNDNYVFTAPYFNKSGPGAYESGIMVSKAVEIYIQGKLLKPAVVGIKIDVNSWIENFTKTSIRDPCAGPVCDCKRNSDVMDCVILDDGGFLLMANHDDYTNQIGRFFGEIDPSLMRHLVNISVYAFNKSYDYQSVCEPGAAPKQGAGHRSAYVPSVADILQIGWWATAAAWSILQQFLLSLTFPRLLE
T1 sequence (P54289 957-1103 partner limits assumed): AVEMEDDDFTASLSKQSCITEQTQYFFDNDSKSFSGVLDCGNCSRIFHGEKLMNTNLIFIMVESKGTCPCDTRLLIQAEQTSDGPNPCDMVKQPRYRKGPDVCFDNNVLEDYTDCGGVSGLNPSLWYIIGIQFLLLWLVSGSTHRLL
T1 sequence (P54284 whole entry partner): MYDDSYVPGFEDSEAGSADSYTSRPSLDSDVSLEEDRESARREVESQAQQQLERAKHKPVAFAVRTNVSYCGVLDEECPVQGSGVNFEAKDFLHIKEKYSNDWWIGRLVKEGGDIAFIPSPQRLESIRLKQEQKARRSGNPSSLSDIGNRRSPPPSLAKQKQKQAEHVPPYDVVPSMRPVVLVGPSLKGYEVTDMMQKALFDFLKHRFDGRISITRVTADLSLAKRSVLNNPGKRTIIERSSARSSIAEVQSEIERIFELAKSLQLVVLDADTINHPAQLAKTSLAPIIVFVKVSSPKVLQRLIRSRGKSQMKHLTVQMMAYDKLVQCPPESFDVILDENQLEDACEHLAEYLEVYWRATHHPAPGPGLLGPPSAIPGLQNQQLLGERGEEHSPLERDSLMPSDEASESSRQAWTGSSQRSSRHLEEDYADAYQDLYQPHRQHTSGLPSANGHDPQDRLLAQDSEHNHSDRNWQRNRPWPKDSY

Row | Structure (SMILES) | Inhibition of Calcium Flux in IMR-32 Cells % Inhibition at 1 μM [%]
1 | CC(C)C[C@H](NC(=O)Nc1cc(Cl)cc(Cl)c1)C(=O)N[C@@H](Cc1ccc(OCc2ccccc2)cc1)C(=O)OC(C)(C)C (relative stereo) [Example 86, [S-(R*,R*)]-3-(4-Benzyloxy-phenyl)-2-{2-[3-(3,5-dichloro-phenyl)-ureido]-4-methyl-pentanoylamino}-propionic acid tert-butyl ester] | 40
2 | CC(C)C[C@H](NC(=O)NC(C)C)C(=O)N[C@@H](Cc1ccc(OCc2ccccc2)cc1)C(=O)OC(C)(C)C (relative stereo) [Example 87, [S-(R*,R*)]-3-(4-Benzyloxy-phenyl)-2-[2-(3-isopropyl-ureido)-4-methyl-pentanoylamino]-propionic acid tert-butyl ester] | 37
3 | CNC(=O)N[C@@H](CC(C)C)C(=O)N[C@@H](Cc1ccc(OCc2ccccc2)cc1)C(=O)OC(C)(C)C (relative stereo) [Example 88, [S-(R*,R*)]-3-(4-Benzyloxy-phenyl)-2-[4-methyl-2-(3-methyl-ureido)-pentanoylamino]-propionic acid tert-butyl ester] | 30
4 | CCNC(=O)N[C@@H](CC(C)C)C(=O)N[C@@H](Cc1ccc(OCc2ccccc2)cc1)C(=O)OC(C)(C)C (relative stereo) [Example 89, [S-(R*,R*)]-3-(4-Benzyloxy-phenyl)-2-[2-(3-ethyl-ureido)-4-methyl-pentanoylamino]-propionic acid tert-butyl ester] | 30
5 | CC(C)C[C@H](NC(=O)c1ccco1)C(=O)C[C@H](Cc1ccc(OCc2ccccc2)cc1)C(=O)OC(C)(C)C (relative stereo) [Example 90, [S-(R*,R*)]-2-(4-Benzyloxy-benzyl)-5-[(furan-2-carbonyl)-amino]-7-methyl-4-oxo-octanoic acid tert-butyl ester] | 37
6 | CC(C)C[C@H](NC(=O)c1ccc2c(c1)OCO2)C(=O)N[C@@H](Cc1ccc(OCc2ccccc2)cc1)C(=O)OC(C)(C)C (relative stereo) [Example 97, [S-(R*,R*)]-2-{2-[(Benzo[1,3]dioxole-5-carbonyl)-amino]-4-methyl-pentanoylamino}-3-(4-benzyloxy-phenyl)-propionic acid tert-butyl ester] | 30
7 | COc1ccc(S(=O)(=O)N[C@@H](CC(C)C)C(=O)N[C@@H](Cc2ccc(OCc3ccccc3)cc2)C(=O)OC(C)(C)C)cc1 (relative stereo) [Example 103, [S-(R*,R*)]-3-(4-Benzyloxy-phenyl)-2-[2-(4-methoxy-benzenesulfonylamino)-4-methyl-pentanoylamino]-propionic acid tert-butyl ester] | 28
8 | CC(C)C[C@H](NS(=O)(=O)c1ccc(F)cc1)C(=O)N[C@@H](Cc1ccc(OCc2ccccc2)cc1)C(=O)OC(C)(C)C (relative stereo) [Example 104, [S-(R*,R*)]-3-(4-Benzyloxy-phenyl)-2-[2-(4-fluoro-benzenesulfonylamino)-4-methyl-pentanoylamino]-propionic acid tert-butyl ester] | 35
9 | Cc1ccccc1S(=O)(=O)N[C@@H](CC(C)C)C(=O)N[C@@H](Cc1ccc(OCc2ccccc2)cc1)C(=O)OC(C)(C)C (relative stereo) [Example 105, [S-(R*,R*)]-3-(4-Benzyloxy-phenyl)-2-[4-methyl-2-(toluene-2-sulfonylamino)-pentanoylamino]-propionic acid tert-butyl ester] | 29
10 | CC(C)C[C@H](NS(=O)(=O)c1cc(Cl)cc(Cl)c1)C(=O)N[C@@H](Cc1ccc(OCc2ccccc2)cc1)C(=O)OC(C)(C)C (relative stereo) [Example 106, [S-(R*,R*)]-3-(4-Benzyloxy-phenyl)-2-[2-(3,5-dichloro-benzenesulfonylamino)-4-methylpentanoylamino]-propionic acid tert-butyl ester] | 32

Other lines, results leading:

Row | Inhibition of Calcium Flux in IMR-32 Cells % Inhibition at 1 μM [%] | Structure (SMILES)
11 | 34 | CCOc1ccc(C(=O)N[C@@H](CC(C)C)C(=O)N[C@@H](Cc2ccc(OCc3ccccc3)cc2)C(=O)OC(C)(C)C)cc1 (relative stereo) [Example 91, [S-(R*,R*)]-3-(4-Benzyloxy-phenyl)-2-[2-(4-ethoxy-benzoylamino)-4-methyl-pentanoylamino]-propionic acid tert-butyl ester]
12 | 17 | CC(C)C[C@H](NC(=O)c1ccc(C(C)(C)C)cc1)C(=O)N[C@@H](Cc1ccc(OCc2ccccc2)cc1)C(=O)OC(C)(C)C (relative stereo) [Example 93, [S-(R*,R*)]-3-(4-Benzyloxy-phenyl)-2-[2-(4-tert-butyl-benzoylamino)-4-methyl-pentanoylamino]-propionic acid tert-butyl ester]
13 | 29 | CC(C)C[C@H](NC(=O)c1ccc(F)cc1)C(=O)N[C@@H](Cc1ccc(OCc2ccccc2)cc1)C(=O)OC(C)(C)C (relative stereo) [Example 94, [S-(R*,R*)]-3-(4-Benzyloxy-phenyl)-2-[2-(4-fluoro-benzoylamino)-4-methyl-pentanoylamino]-propionic acid tert-butyl ester]
14 | 27 | COc1ccc(C(=O)N[C@@H](CC(C)C)C(=O)N[C@@H](Cc2ccc(OCc3ccccc3)cc2)C(=O)OC(C)(C)C)cc1 (relative stereo) [Example 95, [S-(R*,R*)]-3-(4-Benzyloxy-phenyl)-2-[2-(4-methoxy-benzoylamino)-4-methyl-pentanoylamino]-propionic acid tert-butyl ester]
15 | 33 | COc1cccc(C(=O)N[C@@H](CC(C)C)C(=O)N[C@@H](Cc2ccc(OCc3ccccc3)cc2)C(=O)OC(C)(C)C)c1 (relative stereo) [Example 96, [S-(R*,R*)]-3-(4-Benzyloxy-phenyl)-2-[2-(3-methoxy-benzoylamino)-4-methyl-pentanoylamino]-propionic acid tert-butyl ester]
16 | 34 | COc1ccccc1C(=O)N[C@@H](CC(C)C)C(=O)N[C@@H](Cc1ccc(OCc2ccccc2)cc1)C(=O)OC(C)(C)C (relative stereo) [Example 98, [S-(R*,R*)]-3-(4-Benzyloxy-phenyl)-2-[2-(2-methoxy-benzoylamino)-4-methyl-pentanoylamino]-propionic acid tert-butyl ester]
17 | 19 | CC(C)C[C@H](NC(=O)c1ccc2ccccc2c1)C(=O)N[C@@H](Cc1ccc(OCc2ccccc2)cc1)C(=O)OC(C)(C)C (relative stereo) [Example 99, [S-(R*,R*)]-3-(4-Benzyloxy-phenyl)-2-{4-methyl-2-[(naphthalene-2-carbonyl)-amino]pentanoylamino}-propionic acid tert-butyl ester]
18 | 18 | COc1ccc(C(=O)N[C@@H](CC(C)C)C(=O)N[C@@H](Cc2ccc(OCc3ccccc3)cc2)C(=O)OC(C)(C)C)cc1OC (relative stereo) [Example 100, [S-(R*,R*)]-3-(4-Benzyloxy-phenyl)-2-[2-(3,4-dimethoxy-benzoylamino)-4-methyl-pentanoylamino]-propionic acid tert-butyl ester]

same assay, conditions: 10 μM

Row | Inhibition of Calcium Flux in IMR-32 Cells % Inhibition at 10 μM [%] | Structure (SMILES)
19 | 83 | CC(C)C[C@H](NC(=O)c1ccco1)C(=O)C[C@H](Cc1ccc(OCc2ccccc2)cc1)C(=O)OC(C)(C)C (relative stereo) [Example 90, [S-(R*,R*)]-2-(4-Benzyloxy-benzyl)-5-[(furan-2-carbonyl)-amino]-7-methyl-4-oxo-octanoic acid tert-butyl ester]
20 | 48 | CCOc1ccc(C(=O)N[C@@H](CC(C)C)C(=O)N[C@@H](Cc2ccc(OCc3ccccc3)cc2)C(=O)OC(C)(C)C)cc1 (relative stereo) [Example 91, [S-(R*,R*)]-3-(4-Benzyloxy-phenyl)-2-[2-(4-ethoxy-benzoylamino)-4-methyl-pentanoylamino]-propionic acid tert-butyl ester]
21 | 75 | CC(C)C[C@H](NS(=O)(=O)c1cccc2nsnc12)C(=O)C[C@H](Cc1ccc(OCc2ccccc2)cc1)C(=O)OC(C)(C)C (relative stereo) [Example 102, [S-(R*,R*)]-5-(Benzo[1,2,5]thiadiazole-4-sulfonylamino)-2-(4-benzyloxybenzyl)-7-methyl-4-oxo-octanoic acid tert-butyl ester]
22 | 57 | CC(C)C[C@H](NS(=O)(=O)c1cccs1)C(=O)N[C@@H](Cc1ccc(OCc2ccccc2)cc1)C(=O)OC(C)(C)C (relative stereo) [Example 107, [S-(R*,R*)]-3-(4-Benzyloxy-phenyl)-2-[4-methyl-2-(thiophene-2-sulfonylamino)-pentanoylamino]-propionic acid tert-butyl ester]
